≈ marks a conversion by molar mass, not a printed value. Structures can show the parent of a compound that is named as a salt. Where two headings read alike, the source gives them in different places.
What was measured:
[1] = Pharmacokinetics study, rat IV and PO; type: in vivo
[2] = Weight loss before melting (TGA) of solid forms; type: physicochemical
[3] = Stability of solid forms under stress conditions; type: physicochemical
[4] = Solubility 24 hrs in FaSSIF, FeSSIF, SGF, H2O; type: physicochemical; conditions: thermodynamic from solid
Description: In Table 3, “FaSSIF” stands for “Fasted state simulated intestinal fluid”; “FeSSIF” stands for “Fed state simulated intestinal fluid”; “SGF” stands for “Simulated gastric fluid”.

[5] = 20 mg/kg, listed as ABT-101 S0*
[6] = FeSSIF (fed state simulated intestinal fluid), fessif
[7] = SGF (simulated gastric fluid), simulated gastric fluid, SGF

| SMILES | increased Cmax, AUC and F (%) compared to amorphous form (ABT-101 S0) [1] | Cmax ([1]; 20 mg/kg) [ng/mL] | F (%) ([1]; 20 mg/kg) | Cmax [1, 5] [ng/mL] | F (%) [1, 5] [%] | Tmax [1, 5] [h] | half-life ([1]; rat, in vivo, po, 20 mg/kg) [h] | Tmax ([1]; rat, in vivo, po, 20 mg/kg, read-out: Tmax) [h] | Weight loss before melting (%) (TGA) [2] [wt %] | Stability ([3]; 25° C./60% RH, 1 week) | Stability ([3]; 40° C./75% RH, 1 week) | Stability ([3]; 80° C., 24 hrs) | solubility at 24 h ([4]; FaSSIF (fasted state simulated intestinal fluid), fassif) [µg/mL] | solubility at 24 h [4, 6] [µg/mL] | solubility at 24 h [4, 7] [µg/mL] | solubility at 24 h ([4]; water, H2O) [µg/mL] |
| --- | --- | --- | --- | --- | --- | --- | --- | --- | --- | --- | --- | --- | --- | --- | --- | --- |
| CN(C)C/C=C/C(=O)Nc1cccc(-c2c(-c3ccccc3)oc3ncnc(N[C@H](CO)c4ccccc4)c23)c1 [ABT-101 S0, (S, E)-4-(dimethylamino)-N-(3-(4-(2-hydroxy-1-phenylethylamino)-6-phenylfuro[2,3-d]pyrimidin-5-yl)phenyl)but-2-enamide] | 1.9˜3 times | 136 | 19 | 508 | 42 | 3.3 | 4.7 | 4 | – | – | – | – | – | – | – | – |
| CN(C)C/C=C/C(=O)Nc1cccc(-c2c(-c3ccccc3)oc3ncnc(N[C@H](CO)c4ccccc4)c23)c1 [Free Base, (S, E)-4-(dimethylamino)-N-(3-(4-(2-hydroxy-1-phenylethylamino)-6-phenylfuro[2,3-d]pyrimidin-5-yl)phenyl)but-2-enamide] | – | – | – | – | – | – | – | – | 0.6 | Stable | Stable | Stable | 320 (≈ 600 µM) | 410 (≈ 768 µM) | 9100 (≈ 17100 µM) | 20 (≈ 37.5 µM) |
| CN(C)C/C=C/C(=O)Nc1cccc(-c2c(-c3ccccc3)oc3ncnc(NC(CO)c4ccccc4)c23)c1 (stereo not drawn) [Glycollate] | – | – | – | – | – | – | – | – | 0.7 | Stable | Unstable | Stable | – | > 11300 | > 10900 | – |

The next lines start with the values.

| increased Cmax, AUC and F (%) compared to amorphous form (ABT-101 S0) [1] | Cmax ([1]; 20 mg/kg) [ng/mL] | F (%) ([1]; 20 mg/kg) | Cmax [1, 5] [ng/mL] | F (%) [1, 5] [%] | Tmax [1, 5] [h] | half-life ([1]; rat, in vivo, po, 20 mg/kg) [h] | Tmax ([1]; rat, in vivo, po, 20 mg/kg, read-out: Tmax) [h] | Weight loss before melting (%) (TGA) [2] [wt %] | Stability ([3]; 25° C./60% RH, 1 week) | Stability ([3]; 40° C./75% RH, 1 week) | Stability ([3]; 80° C., 24 hrs) | solubility at 24 h ([4]; FaSSIF (fasted state simulated intestinal fluid), fassif) [µg/mL] | solubility at 24 h [4, 6] [µg/mL] | solubility at 24 h [4, 7] [µg/mL] | solubility at 24 h ([4]; water, H2O) [µg/mL] | SMILES |
| --- | --- | --- | --- | --- | --- | --- | --- | --- | --- | --- | --- | --- | --- | --- | --- | --- |
| – | – | – | – | – | – | – | – | 3.6 | Stable | Stable | Stable | – | – | – | – | CN(C)C/C=C/C(=O)Nc1cccc(-c2c(-c3ccccc3)oc3ncnc(NC(CO)c4ccccc4)c23)c1 (stereo not drawn) [Hydrochloride] |
| – | – | – | – | – | – | – | – | 0.5 | Stable | Unstable | Stable | – | – | – | – | CN(C)C/C=C/C(=O)Nc1cccc(-c2c(-c3ccccc3)oc3ncnc(NC(CO)c4ccccc4)c23)c1 (stereo not drawn) [Succinate] |
